What was measured:
[1] = test system: INA-6 cells; assay: Cleavage of caspases and PARP, western blot; format: cell-based, human; settings: 0-5 μM, 120 h
Text: (§1) Whole-cell lysates were subjected to sodium dodecyl sulfate-polyacrylamide gel electrophoresis (SDS-PAGE) separation, transferred to Pure Nitrocellulose membranes (Bio-Rad Laboratories, Hercules, Calif.), and immunoblotted with anti-AKT, phospho(p)-AKT (Ser473, Thr 308), ERK1/2 , P-ERK1/2, P-PDK1, STAT, P-STAT, P-FKRHL, P-70S6K, LC3, and PI3K/p110 α Abs (Cell Signaling Danvers, Mass.); anti-p110β, PI3K/p110δ, Glyceraldehyde 3-phosphate dehydrogenase (GAPDH), α-tubulin, and actin Abs (Santa Cruz Biotechnology, Calif.); and anti-p110 γ Ab (Alexis, San Diego, Calif.): and anti-LC3 Ab (Abgent, San Diego, Calif.).
Total cell lysates were subjected to immunoblotting using anti-caspase-3, -8, -9, PARP, and α-tubulin Abs. FL indicates full-length protein, and CL indicates cleaved protein.

[2] = test system: MM.1S cells; assay: AKT and ERK phosphorylation, immunoblotting; format: cell-based, human; settings: MM.1S cells with low expression of P110δ; 6 hours
Text: as §1
Actin Ab was used as a loading control. […] Whole cell lysates were subjected to immunoblotting using AKT, P-AKT (Ser473 and Thr308), ERK1/2, P-ERK1/2, P-PDK1, and P-FKRHL antibodies. α-tubulin is used as a loading control.

[3] = test system: LB and INA-6 MM cells with BMSCs; assay: Paracrine MM cell growth, cytokine secretion and signaling with BMSCs; format: cell-based, human; settings: 48 h
Method: MM cells (2×10^4 cells/well) were cultured for 48 h in BMSC coated 96-well plates (Costar, Cambridge, Mass.), in the presence or absence of drug. DNA synthesis was measured by [3H]-thymidine (Perkin-Elmer, Boston, Mass.) uptake, with [3H]-thymidine (0.5μ Ci/well) added during the last 8 h of 48 h cultures. All experiments were performed in quadruplicate.
Cytokine secretion by human BMSCs cocultured with MM cells was assessed by ELISA. […] After 48 h, supernatants were harvested and stored at −80° C. Cytokines were measured using Duo set ELISA Development Kits (R&D Systems, Minneapolis, Minn.). All measurements were carried out in triplicate.
The cytokine levels in culture supernatants were assessed using Proteome Profiler Antibody Arrays Panel A (R&D Systems, Minneapolis, Minn.), Supernatants from co-cultures with BMSCs were incubated for 4 hours with membranes arrayed with Abs against 37 cytokines, according to manufacturer's instructions.
DNA synthesis was determined by [3H]-thymidine incorporation. Data represent means (±SD) of triplicate cultures.
Error bars indicate SD (±).
INA-6 cells cultured with or without BMSCs were treated with compound for 48 h. Total cell lysates were subjected to immunoblotting using indicated antibodies, FIG. 34F. Actin was used as a loading control.

[4] = test system: HuVECs; assay: In vitro angiogenesis assay, endothelial cell tube formation; format: cell-based, human; settings: 0, 1.0, or 10 μM; 8 h
Method: HUVEC and endothelial growth media were obtained from Lonza (Walkersville, Md., USA). […] After 8 h, tube formation was evaluated using Leika DM IL microscopy (Leica Microsystems, Wetzlar, Germany) and analyzed with IM50 software (Leica Microsystems Imaging Solutions, Cambridge, UK). HUVEC cell migration and rearrangement was visualized, and the number of branching points counted.
The effect of P110 δ inhibition on angiogenesis was investigated.

[5] = test system: HuVEC cells; assay: AKT and ERK1/2 in HuVEC lysates, immunoblotting; format: cell-based, human; settings: 0-200 μM; 8 h
Text: Actin was used as a loading control.

[6] = test system: FL cell lines; assay: PI3K signaling and apoptosis in follicular lymphoma cell lines; format: cell-based
[7] = test system: CLL cells on StromaNKTert; assay: Calcein-based adhesion assay of CLL cells on stroma; format: cell-based, human
Method: Calcein-based adhesion assay: a confluent monolayer of CD154+ L or StromaNKTert cells was generated by plating 1×10^4 cells/well in 96-well plates for 24 hours. Single cell suspensions of CLL cells at 0.5×10^6 cells/ml were then labeled with 1 μg/mL Calcein-AM (Invitrogen) for 1 hour. Cells were then spun down and treated with compound or vehicle for 1 to 24 hours. Non-adherent cells were washed off by aspiration. CLL cell adhesion was quantified by fluorimetry (Ex/Em=485/520 nm), and visualized directly using the Nikon TE2000 inverted live-cell imaging system.

[8] = test system: CLL cells; assay: BH3 profiling, mitochondrial depolarization (JC-1); format: cell-based, human
Method: BH3 profiling: CLL patient peripheral blood, bone marrow, and lymph node samples were analyzed by either the plate-based fluorimetry or FACS method. Briefly, PBMCs from CLL patients were made into single cell suspensions and gently permeabilized using digitonin (0.002%). For the fluorimtery-based method, 100 μM JC-1 (Invitrogen) was added at this time and cells were then loaded onto a 384-well plate, with individual wells containing individual BH3-only peptides. The JC1-BH3 assays were then conducted in triplicate on a Tecan Safire 2 with Ex 545 +/−[…] and Em 590 +/−20 nm with a three-hour time course. For the FACS-based method, single cell suspensions from CLL patient PBMCs were stained using human Fc Block (BD Pharmingen) followed by anti-CD19-V450 (BD Pharmingen) and anti-CXCR4-APC (BD Pharmingen). […] JC-1 was measured from the 488-nm laser using a 530/30-nm filter (FITC) and a 585/42-nm filter (PE), and the degree of mitochondrial depolarization was calculated using the surrogate of the change in the median of PE signal. The mitochondrial depolarization reported in response to each BH3 peptide is normalized relative to the median percentage change in PE fluorescence of the JC-1 dye with a negative control, dimethyl sulfoxide (DMSO) (0%) and a positive control, the mitochondrial uncoupling agent carbonyl cyanide 4-(trifluoromethoxy)- phenylhydrazone (FCCP) (100%).

In the case of `CC[C@H](Nc1ncnc2[nH]cnc12)c1nc2cccc(F)c2c(=O)n1-c1ccccc1` [Compound I, 5-fluoro-3-phenyl-2-[1-(9H-purin-6-ylamino)-propyl]-3H-quinazolin-4-one], the “cleavage of caspase-8, caspase-9, caspase-3, and PARP” value [1] is reported as “Significantly increased cleavage”, the “phosphorylation of AKT or ERK” value [2] is reported as “did not affect” and the “MM cell growth induced by BMSCs” value ([3]; 2.5, 5, 10 μM) is reported as “inhibited”. For the same compound, the “cytokine secretion induced by BMSCs” value ([3]; ELISA, cytokine arrays) was “inhibited”, the “phosphorylation of AKT and ERK induced by BMSCs” value ([3]; INA-6 with BMSCs) was “inhibited” and the capillary-like tube formation [4] was “inhibited capillary-like tube formation in a dose-dependent fashion”. The “phosphorylation and expression of AKT and ERK1/2” value [5] was “markedly down regulated”, the “pAkt, Akt, pS6 and S6 in FL cell lines” value ([6]; certain cell lines) was “reduction in the production of pAkt, Akt, pS6 and S6” and the “cleavage of PARP and Caspase-3 in FL cell lines” value ([6]; dose dependent, 24 hours, 0.1 μM and 0.5 μM) was “Cleavage of PARP and Caspase-3 is observed”. The “CLL cell adherence to stroma after one hour” value [7] was “reduced adherence”, the “CLL cell adherence to stroma at 24 hours” value ([7]; 10 μM) was “less adherent” and the “mitochondrial priming of stroma-exposed CLL cells” value ([8]; 24 hours, p=0.075) was “increased mitochondrial priming”. For the same compound, the “mitochondrial depolarization induced by BAD BH3 peptide and ABT-737 in treated CLL cells” value ([8]; p=0.046 and p=0.047) was “significantly more mitochondrial depolarization”.

Reference: patent publication US20190083498A1, “THERAPIES FOR HEMATOLOGIC MALIGNANCIES” (GILEAD CALISTOGA LLC, priority 2008, published 2019)
